# Values of other authors as cited in publication PMC12298827, “Subchronic Toxicities of Four Per- and Polyfluoroalkyl Substances (PFASs) by Oral Exposure in Sprague–Dawley Rats” (Toxics, 2025).
# Test system: male and female rats
# Conditions: cited from earlier work
Compound,"Effect on liver weights or bodyweights (doses of up to 600 mg/kg-day, 90-day oral gavage, male or female rats ref 21)",Effect on absolute and relative liver weights (28- and 90-day oral gavage ref 16)
O=S(=O)(O)C(F)(F)C(F)(F)C(F)(F)C(F)(F)F [perfluorobutane sulfonate],did not affect the liver weights or bodyweights,
N.O=C(O)C(F)(F)C(F)(F)C(F)(F)F [ammonium perfluorobutyrate],,significant increases in the absolute and relative liver weights only in male rats
